Measurements taken from patent US20100203634A1, “Inhibition of stem cell differentiation, enhancement of proliferation and selective induction of apoptosis by Wnt factors” (DeltaCell B.V., priority 2003, published 2010).
Entries after “also recorded” stand apart in the source; their conditions may differ.

Tests used:
[1] = test system: fetal lung explants (E12.5); experiment: Eight-day fetal lung explant culture, histology and tubulin-IV immunostaining (final lung differentiation); assay type: cell-based, mouse
Procedure: FIG. 7: The effect of Wnt3A on the final lung differentiation. The lung explants were cultured for eight days in the presence of 0 ng/ml (Panels A and B), 10 ng/ml (Panel C), 50 ng/ml (Panel D), 250 ng/ml (Panel E) and 500 ng/ml Wnt3A (Panel F). After embedding, histological sections were stained with a tubulin-IV antibody to mark ciliated bronchial epithelium. In addition, the sections were counterstained with Haematoxylin and Alcian Blue, which stained the mucus secreted from the bronchial epithelium and the cartilage associated with the tracheal epithelium.
The primary antibodies used for the immunohistochemical detection was for beta-catenin; anti beta-catenin IgG, mAb, clone 14 from BD-Transduction Laboratories, for tubulin-beta mAb clone TBN05 (Tub2.1) from Neomarkers, for BrdU; anti-Bromodeoxyuridine (BrdU), mAb clone ZBU30 from Zymed Laboratories Inc.
To further determine the effect of Wnt3A upon the development and differentiation of the lung over time, fetal lung explants of isolated E12.5 were cultured with 0, 10, 50, 250, and 500 ng/ml Wnt3A for eight days. Two hours before the fixation of the lung explants, BrdU was added to the culture medium, which is incorporated in newly synthesized DNA of active proliferating cells. After the different time points, the lung explants were processed for histological analysis and immuno staining of marker genes.

[2] = test system: fetal lung explants (E12.5); experiment: Expression profiling of lung explants, Affymetrix MOE430AB microarray; assay type: cell-based, mouse
Procedure: To further investigate the effect of Wnt3A inhibition on lung differentiation, we analyzed the expression profiles of Wnt3A-treated lung explants with microarray analysis using the Affymetrix chip set MOE430AB, containing the complete mouse transcriptome. The lung explants, per condition, ten complete fetal lungs isolated from E12.5 embryos, were treated for four hours with 0 and 250 ng/ml Wnt3A (Wnt0/4 hr and Wnt250/4 hr, respectively), and for 24 hours with 0, 10, 50 and 250 ng/ml Wnt3A ([…], […], Wnt50/24 hr, Wnt250/24 hr, respectively). The 60 lung explants were isolated together from six pregnant Swiss mice and randomly distributed over the six different conditions.
After the indicated time period, total RNA was isolated, which was processed for the synthesis of a probe for hybridization onto the MOE-430AB chip sets. […] A rapid response was observed when the lungs were treated for four hours with 250 ng/ml Wnt3A.

[3] = test system: mesenchyme and epithelium of fetal lung explants; experiment: Apoptosis in lung explants by H/E histology (picnotic nuclei); assay type: cell-based, mouse
Procedure: The (fetal) murine lung explant culture was generated according to our standard protocol. Briefly, complete lungs or individually dissected lung lobes were isolated from fetal mice and cultured for one to five days in a hanging drop culture system. The Wnt3a polypeptide was administered to the culture medium in different concentrations, ranging from 0 to 4000 ng/ml. The effect of this treatment was monitored by stereomicroscopy. The lung explant cultures were subsequently fixed for 30 minutes in 10% paraformaldehyde (PFA), 30 minutes in 2% PFA and 30 minutes in 4% PFA. After fixation, the lung explants were dehydrated through an increasing series of 2-isopropanol and subsequently embedded in paraffin. For the histological analysis, 4 μm thick sections were cut and stained with Hematoxilin and Eosin using standard techniques.
In order to determine the concentration range in which the Wnt3a polypeptide is effective, total lung explants were cultured in the presence of Wnt3a in a range of 0 ng/ml, 500 ng/ml, 750 ng/ml, 1000 ng/ml, 2000 ng/ml and 4000 ng/ml (FIG. 2, Panels A-R).
After two days of culture, these lung explants were fixed and embedded in paraffin for immunohistological analysis.
To more exactly determine the concentration of Wnt3a that is effective upon lung development, differentiation and apoptosis, fetal lung explants were cultured for a longer period (four days) in the presence of lower concentrations of Wnt3a, i.e., 0 ng/ml, 4 ng/ml, 20 ng/ml, 100 ng/ml and 500 ng/ml (FIG. 4, Panels A-O).

[4] = test system: Wnt-signaling pathway in human epithelial lung carcinoma cell line A549; experiment: TopFlash/FopFlash reporter assay, A549; assay type: cell-based; conditions: A549, 20 hours
Procedure: Primary mouse fibroblasts isolated from E12.5 lung explants, the human epithelial lung carcinoma cell line A549 cells (ATCC CCL-185), the human epithelial lung adenocarcinoma cell line Calu-3 (ATCC_HTB-55) and the normal human fetal lung fibroblast cell line HFL-1 cells (ATCC—153) were cultured in 96-well plates and transfected with the TopFlash and FopFlash reporter constructs using lipofectamine 2000 according to the manufacturer's instructions. As an internal control for transfection efficiency, a constitutive renilla luciferase reporter (Promega) was cotransfected. The cells were transfected with the above-mentioned reporter constructs and simultaneously treated with different concentrations of Wnt3A for 20 hours, after which the cells were lysed and luciferase expression was measured using a Berthold luminometer for two seconds (V. Korinek et al., Mol. Cell. Biol. 18:1248-1256, 1998). […]
In order to analyze if Wnt3A is able to activate the Wnt signal-transduction pathway in humans, we stimulated three different cell lines from human origin with Wnt3A and measured the response with the TopFlash/FopFlash reporter assay. The three human lung-derived cell lines analyzed were the lung epithelial carcinoma cell line A549 (FIG. 9B), the normal lung fibroblast line HFL-1 (FIG. 9C), and the epithelial adenocarcinoma cell line calu-3 (FIG. 9D).

[5] = 250 ng/ml, four hours, versus 0 ng/ml four hours
[6] = 24 hours, "the ng/ml wnt3a-treated group"

In the case of Wnt3a, the “effect on lung development (morphology)” value ([1]; 10 ng/ml, up to eight days) was “profound effects on lung development”, the “flattening of the primordial epithelium to the type-I cell” value ([1]; 250 ng/ml, eight days) was “almost completely suppressed” and the branching ([1]; 500 ng/ml, after one day) was “inhibitory effect upon branching”. The branching ([1]; 500 ng/ml, eight days) was “still severely suppressed”, the “differentiation of distal epithelium (alveolar and bronchiolar compartments)” value ([1]; 500 ng/ml, eight days) was “completely inhibited” and the “proximal structures (tubulin-IV, Haematoxylin and Alcian Blue)” value ([1]; 500 ng/ml, eight days) was “consist completely of proximal structures; also recorded: abundance of bronchial epithelium, mucus and cartilage”. For the same substance, the “alveolarization of the distal epithelium / flattened epithelium (alveolar-type-I cells)” value ([1]; 10 to 250 ng/ml (to 500 ng/ml in FIG. 7), eight days) was “decreasing alveolarization of the distal epithelium; also recorded: loss of flattened epithelium (alveolar-type-I cells) with increasing dosage”, the “changes in gene expression” value ([2]; 10 ng/ml, 24 hours) was “capable of inducing significant changes in gene expression” and the down-regulated genes ([2]; 50 ng/ml, 24 hours) was 92 genes. For the same substance, the up-regulated genes ([2]; 50 ng/ml, 24 hours) was 95 genes, the “genes whose four-hour profile is opposite from the 24-hour Wnt3A-treated profiles” value ([2]; 250 ng/ml four hours versus 24-hour groups) was “circa 75%” and the “down-regulated genes, more than two-fold” value ([2]; 250 ng/ml, 24 hours) was 152 genes. The “up-regulated genes, more than two-fold” value ([2]; 250 ng/ml, 24 hours) was 195 genes, the “down-regulated genes, more than two-fold” value [2, 5] was 1165 genes and the “up-regulated genes, more than two-fold” value [2, 5] was 446 genes. The “cluster analysis of expression profiles of 4500 genes: effect on differentiation” value ([2]; 10, 50 and 250 ng/ml, 24 hours) was “inhibits, at least partially, the differentiation of fetal lung tissue; also recorded: inhibits lung differentiation and development”, the “down-regulated genes, more than two-fold” value [2, 6] was 223 genes and the “up-regulated genes, more than two-fold” value [2, 6] was 209 genes. The “apoptosis in the epithelium” value ([3]; 750 ng/ml, two days) was “no sign of apoptosis whatsoever”, the “apoptosis in the mesenchyme” value ([3]; 750 ng/ml, two days) was “clearly detectable but not yet abundant” and the “apoptosis in the epithelium” value ([3]; 1000 ng/ml, five days) was “contained no apoptotic cells”. For the same substance, the “apoptosis in the mesenchyme” value ([3]; 1000 ng/ml, five days) was “most of the mesenchymal cells surrounding the epithelium displayed picnotic nuclei; also recorded: massive induction of apoptosis in the mesenchyme”, the “apoptosis in the epithelium” value ([3]; 1000 ng/ml, two days) was “not detectable” and the “apoptosis in the epithelium” value ([3]; between 100 and 500 ng/ml, four days) was “no sign of apoptosis could be detected”. For the same substance, the “concentration at which apoptosis in the epithelium is induced” value ([3]; conclusion) was “higher than 1000 ng/ml”, the “concentration at which apoptosis in the mesenchyme is induced” value ([3]; conclusion) was “greater than 100 ng/ml” and the TopFlash/FopFlash reporter response [4] was “respond to Wnt3A in a dosage-dependent manner; also recorded: strong induction of the Wnt-signaling pathway”.
